Data: ChEMBL document CHEMBL5715942, “A novel histone deacetylase 8 (HDAC8)-specific inhibitor PCI-34051 induces apoptosis in T-cell lymphomas” (Leukemia, 2008)
The source made the active and inactive calls. No cut-off for these calls is given here.

Key:
Jurkat [1] = test: Induction of apoptosis in human Jurkat cells assessed as intracellular calcium level at 0.8 uM in presence of Iodo-1 by spectrofluorimetric analysis; assay type: functional, cell-based
A549 [2] = test: Induction of apoptosis in human A549 cells incubated for 72 hrs by Annexin-V staining based flow cytometry analysis relative to control; assay type: functional
MCF7 [3] = test: Anti-proliferative activity against human MCF7 cells assessed as growth inhibition incubated for 72 hrs by alamar blue staining based fluorometric assay; assay type: functional
OVCAR-3 [4] = test: Anti-proliferative activity against human OVCAR-3 cells assessed as growth inhibition incubated for 72 hrs by alamar blue staining based fluorometric assay; assay type: functional
RKO [5] = test: Anti-proliferative activity against human RKO cells assessed as growth inhibition incubated for 72 hrs by alamar blue staining based fluorometric assay; assay type: functional
U-87 MG = test: Anti-proliferative activity against human U87 cells assessed as growth inhibition incubated for 72 hrs by alamar blue staining based fluorometric assay; assay type: functional, U-87MG ATCC
HeLa = test: Anti-proliferative activity against human HeLa cells assessed as growth inhibition incubated for 72 hrs by alamar blue staining based fluorometric assay; assay type: functional
HCT-116 [6] = test: Anti-proliferative activity against human HCT-116 cells assessed as growth inhibition incubated for 72 hrs by alamar blue staining based fluorometric assay; assay type: functional
A549 [7] = test: Anti-proliferative activity against human A549 cells assessed as growth inhibition incubated for 72 hrs by alamar blue staining based fluorometric assay; assay type: functional
HCT-116 [8] = test: Induction of apoptosis in human HCT-116 cells incubated for 72 hrs by Annexin-V staining based flow cytometry analysis relative to control; assay type: functional
RKO [9] = test: Induction of apoptosis in human RKO cells incubated for 72 hrs by Annexin-V staining based flow cytometry analysis relative to control; assay type: functional
MCF7 [10] = test: Induction of apoptosis in human MCF7 cells incubated for 72 hrs by Annexin-V staining based flow cytometry analysis relative to control; assay type: functional
OVCAR-3 [11] = test: Induction of apoptosis in human OVCAR-3 cells incubated for 72 hrs by Annexin-V staining based flow cytometry analysis relative to control; assay type: functional
Jurkat [12] = test: Anti-proliferative activity against human Jurkat cells assessed as growth inhibition incubated for 72 hrs by alamar blue staining based fluorometric assay; assay type: functional
HuT78 = test: Anti-proliferative activity against human HuT78 cells assessed as growth inhibition incubated for 72 hrs by alamar blue staining based fluorometric assay; assay type: functional
CCRF-HSB-2 = test: Anti-proliferative activity against human CCRF-HSB-2 cells assessed as growth inhibition incubated for 72 hrs by alamar blue staining based fluorometric assay; assay type: functional
MOLT-4 = test: Anti-proliferative activity against human MOLT-4 cells assessed as growth inhibition incubated for 72 hrs by alamar blue staining based fluorometric assay; assay type: functional
SUD4 = test: Anti-proliferative activity against human SU-DHL-4 cells assessed as growth inhibition incubated for 72 hrs by alamar blue staining based fluorometric assay; assay type: functional
Ramos = test: Anti-proliferative activity against human Ramos cells assessed as growth inhibition incubated for 72 hrs by alamar blue staining based fluorometric assay; assay type: functional
Raji = test: Anti-proliferative activity against human Raji cells assessed as growth inhibition incubated for 72 hrs by alamar blue staining based fluorometric assay; assay type: functional
DB = test: Anti-proliferative activity against human DB cells assessed as growth inhibition incubated for 72 hrs by alamar blue staining based fluorometric assay; assay type: functional
K562 = test: Anti-proliferative activity against human K562 cells assessed as growth inhibition incubated for 72 hrs by alamar blue staining based fluorometric assay; assay type: functional
THP-1 = test: Anti-proliferative activity against human THP-1 cells assessed as growth inhibition incubated for 72 hrs by alamar blue staining based fluorometric assay; assay type: functional
RPMI-8226 = test: Anti-proliferative activity against human RPMI-8226 cells assessed as growth inhibition incubated for 72 hrs by alamar blue staining based fluorometric assay; assay type: functional
Jurkat [13] = test: Cytotoxicity in tubulin in human Jurkat cells assessed as tubulin acetylation at 0.2 uM incubated for 24 hrs by Western blotting analysis; assay type: functional, cell-based
Jurkat [14] = test: Cytotoxicity in human Jurkat cells assessed as histone acetylation at 0.2 uM incubated for 24 hrs by Western blotting analysis; assay type: functional, cell-based
Jurkat [15] = test: Induction of apoptosis in human Jurkat cells assessed as decrease in FL-Bid at 5 uM incubated for 24 hrs by Western blotting analysis

COc1ccc2c(c1)CC[C@@H]1[C@@H]2CC[C@]2(C)[C@@H](NCCCCCCN3C(=O)CCC3=O)CC[C@@H]12
Activity (Jurkat [1]): inactive

CN(C)Cc1c(C(=O)NCCOc2ccc(C(=O)NO)cc2)oc2ccccc12.Cl [ABEXINOSTAT HYDROCHLORIDE]
Activity (A549 [2]): 47%
GI50 (MCF7 [3]): 0.15 µM
GI50 (OVCAR-3 [4]): 0.16 µM
GI50 (RKO [5]): 1.5 µM
GI50 (U-87 MG): 1.2 µM
GI50 (HeLa): 0.2 µM
GI50 (HCT-116 [6]): 0.2 µM
GI50 (A549 [7]): 0.18 µM
Activity (HCT-116 [8]): 70%
Activity (RKO [9]): 45%
Activity (MCF7 [10]): 37%
Activity (OVCAR-3 [11]): 55%
GI50 (Jurkat [12]): 0.11 µM
GI50 (HuT78): 0.11 µM
GI50 (CCRF-HSB-2): 0.1 µM
GI50 (MOLT-4): 0.12 µM
GI50 (SUD4): 0.1 µM
GI50 (Ramos): 0.13 µM
GI50 (Raji): 0.12 µM
GI50 (DB): 0.15 µM
GI50 (K562): 0.15 µM
GI50 (THP-1): 0.075 µM
GI50 (RPMI-8226): 0.12 µM
Activity (Jurkat [13]): Active
Activity (Jurkat [14]): Active
Activity (Jurkat [15]): Active
